Measured values published in patent US6288091A, “Antiherpes virus compounds and methods for their preparation and use” (Boehringer Ingelheim Ltd., priority 1999, dated 2001).
Like-named read-outs stand apart in the source and are kept apart here.

Assays:
[1] = test system: HCMV (strain AD169); assay: Inhibition of HCMV replication, plaque reduction assay (PRA, Hs-68 cells); type: cell-based, Human Cytomegalovirus (HCMV); details: read-out: PRA CMV EC50
Procedure: C) Inhibition of Human Cytomegalovirus (HCMV) Replication
The effect of compounds on the replication of HCMV has been measured by using an ELISA-based assay (ELISA) and a plaque reduction assay (PRA).
Hs-68 cells (ATCC # CRL 1635) were seeded in 12-well plates at 83,000 cells/well in 1 mL of DMEM medium (Gibco Canada Inc.) supplemented with 10% fetal bovine serum (FBS, Gibco Canada Inc.). The plates were incubated for 3 days at 37° to allow the cells to reach 80-90% confluency prior to the assay.
The medium was removed from the cells by aspiration. The cells were then infected with approximately 50 PFU of HCMV (strain AD169, ATCC VR-538) in DMEM medium supplemented with 5% inactivated FBS (assay medium). The virus was allowed to adsorb to cells for 2 h at 37°. Following viral adsorption, the medium was removed from the wells by aspiration. The cells were then incubated with or without 1 mL of appropriate concentrations of test reagent in assay medium. After 4 days of incubation at 37°, the medium was exchanged with fresh medium containing test compound and 4 days later the cells were fixed with 1% aqueous formaldehyde and stained with a 2% crystal violet solution in 20% ethanol in water. Microscopic plaques were counted using a stereomicroscope. Drug effects were calculated as a percent reduction in the number of plaques in the presence of each drug concentration compared to the number observed in the absence of drug. Ganciclovir was used as a positive control in all experiments.
The EC50 values obtained according to this assay for certain thiazolyl derivatives of this invention are listed in the following tables under the heading PRA CMV.

[2] = test system: HSV-1 strain F or KOS; assay: Inhibition of herpes simplex virus (HSV-1) replication in cell culture (BHK-21 cells, glycoprotein C ELISA); type: cell-based; details: Human alphaherpesvirus 1, BHK-21, Group 1 Table 2 entries
Procedure: B) Inhibition of Herpes Simplex Virus (HSV-1) Replication in Cell Culture
BHK-21 cells clone 13 (ATCC CCL10) were incubated for two days in 850 cm^2 roller bottles (2×10^7 cells/bottle) with A-MEM medium (Gibco Canada Inc., Burlington, Ontario, Canada) supplemented with 8% (v/v) fetal bovine serum (FBS, Gibco Canada, Inc.). The cells were trypsinized and then 3,000 cells in 100 μL of fresh medium were transferred into each well of a 96-well microtiter plate. The cells were incubated at […] for a period of 3 days to reach a density of 50,000 cells per well. The cells were washed twice with 100 μL of α-MEM supplemented with 2% heat inactivated FBS and incubated for 1-2 hours in 100 μL of the same medium.
Thereafter, the cells were infected with HSV-1 strain F or KOS (multiplicity of infection =0.05 PFU/cell) in 50 μL of α-MEM supplemented with 2% heat inactivated FBS. Following one hour of virus absorption at 37°, the medium was removed and the cells were washed with α-MEM supplemented with 2% heat inactivated FBS (2×100 μL). The cells were incubated with or without 100 μL of the appropriate concentration of test reagent in α-MEM medium supplemented with 2% heat inactivated FBS. After 24 hours of incubation at 37°, the extent of viral replication was determined by an ELISA assay; for instance, the following assay that detects the late glycoprotein C of HSV-1.
Cells were fixed in the microtiter plate with 100 μL of 0.063% glutaraldehyde in phosphate buffered saline for 30 min at room temperature. The microtiter plate was then washed once with casein blocking solution and blocked with 200 μL of the same solution for one hour at room temperature. Thereafter, 100 μL of mAb C11 recognizing the glycoprotein C of HSV-1 (see E. Trybala et al., Journal of General Virology, 1994, 75, 743) was added to each well for two hours at room temperature. The plate was washed three times with phosphate buffered saline containing 0.05% polyoxyethylene (20) sorbitan monooleate. The cells were incubated with 100 μL of sheep anti-mouse IgG horseradish peroxidase for one hour at room temperature in the dark.
The plate was washed three times with 200 μL of the above-noted phosphate buffer saline preparation, and then once with 0.1 M sodium citrate (pH 4.5). Thereafter, 100 μL of orthophenylenediamine dihydrochloride (OPD, Gibco, Canada Inc.) was added to each well. The plate was agitated on a microplate shaker for 30 min in the dark. Color development was monitored at 450 nm using a microplate spectrophotometer.
SAS was used to calculate % inhibition of viral replication and to generate EC50 values.

[3] = molecular target: T1, HSV-1 helicase-primase (Human herpesvirus 1, UniProt P10189+P10236); assay: HSV-1 DNA-dependent ATPase assay (inhibition of HSV-1 helicase-primase); type: biochemical
T1 construct: made in house; host or cells: Sf21 insect cells triply infected with recombinant baculoviruses (UL5, UL8, UL52)
T1 sequence (P10192 whole entry): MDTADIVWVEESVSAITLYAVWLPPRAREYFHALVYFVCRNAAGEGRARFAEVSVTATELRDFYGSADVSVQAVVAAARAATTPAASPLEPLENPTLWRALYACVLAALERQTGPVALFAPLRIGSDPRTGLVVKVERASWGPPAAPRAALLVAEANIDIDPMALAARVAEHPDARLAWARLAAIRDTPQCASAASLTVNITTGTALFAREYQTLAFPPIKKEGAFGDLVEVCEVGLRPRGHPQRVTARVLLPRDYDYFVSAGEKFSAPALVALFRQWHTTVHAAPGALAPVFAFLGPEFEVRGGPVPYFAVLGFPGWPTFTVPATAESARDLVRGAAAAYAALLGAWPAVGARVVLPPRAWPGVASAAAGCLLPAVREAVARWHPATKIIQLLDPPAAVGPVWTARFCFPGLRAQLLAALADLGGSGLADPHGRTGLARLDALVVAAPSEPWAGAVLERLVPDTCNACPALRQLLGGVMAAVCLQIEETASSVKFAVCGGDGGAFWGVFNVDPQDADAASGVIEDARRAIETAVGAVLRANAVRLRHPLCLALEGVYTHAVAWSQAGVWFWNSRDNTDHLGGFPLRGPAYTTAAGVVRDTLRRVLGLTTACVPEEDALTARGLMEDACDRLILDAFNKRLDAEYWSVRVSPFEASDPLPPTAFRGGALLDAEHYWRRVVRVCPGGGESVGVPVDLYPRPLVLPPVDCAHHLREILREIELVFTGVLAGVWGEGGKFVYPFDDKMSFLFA
T1 sequence (P10236 whole entry): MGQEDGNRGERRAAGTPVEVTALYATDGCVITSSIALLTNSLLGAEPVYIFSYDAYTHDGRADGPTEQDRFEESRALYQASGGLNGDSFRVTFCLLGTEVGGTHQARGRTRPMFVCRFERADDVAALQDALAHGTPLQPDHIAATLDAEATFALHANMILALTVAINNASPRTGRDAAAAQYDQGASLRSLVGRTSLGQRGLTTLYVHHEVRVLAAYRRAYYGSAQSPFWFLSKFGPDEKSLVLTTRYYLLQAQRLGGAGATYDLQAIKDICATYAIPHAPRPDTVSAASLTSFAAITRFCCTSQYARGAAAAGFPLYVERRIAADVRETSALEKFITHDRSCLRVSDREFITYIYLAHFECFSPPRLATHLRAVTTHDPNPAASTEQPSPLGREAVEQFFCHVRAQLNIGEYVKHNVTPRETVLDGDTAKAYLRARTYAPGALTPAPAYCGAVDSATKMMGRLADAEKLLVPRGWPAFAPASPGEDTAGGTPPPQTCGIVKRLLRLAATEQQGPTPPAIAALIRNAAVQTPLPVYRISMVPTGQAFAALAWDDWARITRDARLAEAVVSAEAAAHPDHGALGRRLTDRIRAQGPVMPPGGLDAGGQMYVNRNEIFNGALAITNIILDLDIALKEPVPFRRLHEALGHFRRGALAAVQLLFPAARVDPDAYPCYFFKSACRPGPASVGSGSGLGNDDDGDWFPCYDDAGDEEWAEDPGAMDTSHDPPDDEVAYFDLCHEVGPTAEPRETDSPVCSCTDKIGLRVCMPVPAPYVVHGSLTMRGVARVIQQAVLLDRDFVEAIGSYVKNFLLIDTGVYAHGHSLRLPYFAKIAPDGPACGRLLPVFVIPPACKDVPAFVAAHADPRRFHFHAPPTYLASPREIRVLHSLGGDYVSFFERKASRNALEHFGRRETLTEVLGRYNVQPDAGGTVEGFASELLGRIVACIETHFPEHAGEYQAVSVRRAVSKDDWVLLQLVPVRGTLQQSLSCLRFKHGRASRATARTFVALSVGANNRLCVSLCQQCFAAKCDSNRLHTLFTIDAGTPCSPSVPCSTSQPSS
T1 sequence (P10189 whole entry): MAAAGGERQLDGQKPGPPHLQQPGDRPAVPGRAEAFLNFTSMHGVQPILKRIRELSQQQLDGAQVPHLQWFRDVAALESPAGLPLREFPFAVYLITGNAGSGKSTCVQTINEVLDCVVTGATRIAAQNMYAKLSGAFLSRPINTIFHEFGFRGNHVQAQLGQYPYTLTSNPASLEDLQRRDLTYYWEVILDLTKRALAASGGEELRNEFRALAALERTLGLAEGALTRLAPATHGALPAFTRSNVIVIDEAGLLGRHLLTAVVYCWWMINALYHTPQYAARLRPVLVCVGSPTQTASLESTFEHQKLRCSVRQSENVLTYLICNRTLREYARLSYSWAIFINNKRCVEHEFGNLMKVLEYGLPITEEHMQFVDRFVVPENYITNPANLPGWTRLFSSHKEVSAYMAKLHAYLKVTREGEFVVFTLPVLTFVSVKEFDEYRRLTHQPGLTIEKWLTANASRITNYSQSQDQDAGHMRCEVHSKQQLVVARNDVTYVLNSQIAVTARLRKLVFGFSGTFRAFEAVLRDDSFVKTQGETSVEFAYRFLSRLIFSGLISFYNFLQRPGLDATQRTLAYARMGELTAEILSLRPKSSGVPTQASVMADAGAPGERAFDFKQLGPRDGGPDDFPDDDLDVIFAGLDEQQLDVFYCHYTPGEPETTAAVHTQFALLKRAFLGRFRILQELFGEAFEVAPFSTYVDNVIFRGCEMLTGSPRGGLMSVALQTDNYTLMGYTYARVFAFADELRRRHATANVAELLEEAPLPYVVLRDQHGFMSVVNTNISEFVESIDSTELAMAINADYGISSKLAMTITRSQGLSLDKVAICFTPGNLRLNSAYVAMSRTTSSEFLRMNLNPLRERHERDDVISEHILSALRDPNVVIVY
From the text: A) HSV-1 DNA-Dependent ATP Assay (an in Vitro Assay Based on the Inhibition of HSV-1 Helicase-primase).
HSV-1 helicase-primase holoenzyme was produced in triply infected Sf21 cells using recombinant baculoviruses expressing the UL5, UL8 and UL52 helicase-primase subunits, as described by S. Dracheva et al., J. Biol. Chem. 1995, 270, 14148. The crude enzyme was purified by ammonium sulfate precipitation, Source 15Q® chromatography and Sephacryl® S-300 HR gel filtration (both purification systems can be obtained from Pharmacia Biotech Inc., Montreal, Quebec, Canada), see S. Dracheva et al., supra.
The DNA-dependent ATPase assay, described by J. J. Crute et al., Nucleic Acids Res. 1988, 16, 6585, was modified and used to evaluate the capability of the compounds of Group 1-formula 1 to inhibit HSV-1 helicase-primase activity. The reaction mixtures (80 μL each) contained 40 mM 4-(2-hydroxyethyl)-1-piperazineethanesulfonic acid (HEPES, pH 7.5), 10% (v/v) glycerol, 5.5 mM MgCl2, 1 mM DL-dithiothreitol (DTT), 50 μg/mL acetylated bovine serum albumin, 3.3% (v/v) DMSO, 4 mM ATP, 25 μM single-stranded M13 DNA hybridized to double-tailed 68-mer oligonucleotide and 3 μg/mL HSV-1 helicase-primase. After incubation for 20 min at 34°, formation of inorganic phosphate from hydrolysis of ATP was monitored spectrophotometrically at 650 nm using acidic ammonium molybdate/malachite green reagent, P. A. Lanzetta et al., Anal. Biochem. 1979, 100, 95. DNA-dependent ATPase activity was calculated from the net absorbance change in the presence and absence of inhibition.

[4] = Human betaherpesvirus 5, AD169, Hs68, Group 1 Table 4 entries
[5] = Human betaherpesvirus 5, AD169, Hs68, Group 1 Table 2 entries
[6] = Human betaherpesvirus 5, AD169, Hs68, Group 2 Table 1 entries
[7] = Human betaherpesvirus 5, AD169, Hs68, Group 1 Table 1 entries
[8] = Human betaherpesvirus 5, AD169, Hs68, Group 1 Table 3 entries

| Structure (SMILES) | EC50 [1, 6] | EC50 [1, 7] | other results |
| --- | --- | --- | --- |
| CC(C)(C)OC(=O)Nc1nc(-c2ccc(NC(=O)CCN(Cc3ccccc3)Cc3ccccc3)cc2)cs1 [Example 1] | – | – | EC50 [1, 4]: 1.6 µM |
| CC(C)(C)NC(=O)Nc1nc(-c2ccc(NC(=O)CCN(Cc3ccccc3)Cc3ccccc3)cc2)cs1 [Example 2] | – | – | EC50 [1, 4]: 1.5 µM |
| Nc1nc(-c2ccc(NC(=O)CCN(Cc3ccccc3)C(=O)c3cccnc3)cc2)cs1 [Example 6] | – | – | EC50 [1, 5]: 22 µM; EC50 [2]: 4.8 µM |
| Nc1nc(-c2ccc(NC(=O)NCCc3ccccc3)cc2)cs1 [Example 13] | > 4 µM | – | IC50 ([3]; Group 2 Table 1 entries): 37 µM |
| C#CCNC(=O)Nc1ccc(-c2csc(N)n2)cc1 [Example 17] | > 74 µM | – | IC50 ([3]; Group 2 Table 1 entries): 33 µM |
| CN[C@H](Cc1ccccc1)C(=O)Nc1ccc(-c2csc(N)n2)cc1 [Example 18] | – | – | IC50 ([3]; Group 1 Table 5 entries): 24.5 µM; EC50 ([1]; Human betaherpesvirus 5, AD169, Hs68, Group 1 Table 5 entries): > 48 µM |
| Nc1nc(-c2ccc(NC(=O)Nc3nccs3)cc2)cs1 [Example 18] | > 56 µM | – | – |
| Nc1nc(-c2ccc(NC(=O)NCCc3c[nH]c4ccccc34)cc2)cs1 [Example 19] | 12 µM | – | – |
| Nc1nc(-c2ccc(NC(=O)CNC(=O)c3cccnc3)cc2)cs1 [Example 20] | – | 60 µM | IC50 ([3]; Group 1 Table 1 entries): 23 µM |
| Cc1cc(C)nc(SCC(=O)N(CC(=O)Nc2ccc(-c3csc(NC(=O)OC(C)(C)C)n3)cc2)Cc2ccccc2)n1 [Example 21] | – | – | EC50 [1, 8]: 1.2 µM |
| C[C@H](c1ccccc1)N(CC(=O)Nc1ccc(-c2csc(NC(=O)OC(C)(C)C)n2)cc1)C(=O)C1CCCCC1 [Example 22] | – | – | EC50 [1, 8]: 1.3 µM |
| C[C@H](c1ccccc1)N(CC(=O)Nc1ccc(-c2csc(NC(=O)OC(C)(C)C)n2)cc1)C(=O)Cc1ccccn1 [Example 23] | – | – | EC50 [1, 8]: 2.8 µM |
| C[C@H](c1ccccc1)N(CC(=O)Nc1ccc(-c2csc(NC(=O)OC(C)(C)C)n2)cc1)C(=O)c1ccncc1 [Example 24] | – | – | EC50 [1, 8]: 3.7 µM |
| C[C@@H](c1ccccc1)N(CC(=O)Nc1ccc(-c2csc(NC(=O)OC(C)(C)C)n2)cc1)C(=O)Cc1ccccn1 [Example 25] | – | – | EC50 [1, 8]: 2.7 µM |
| CC(=O)Nc1nc(-c2ccc(NC(=O)CN(C(=O)C3CCCCC3)[C@H](C)c3ccccc3)cc2)cs1 [Example 26] | – | – | EC50 [1, 8]: 15 µM |
| Nc1nc(-c2ccc(NC(=O)CCN(Cc3ccccc3)Cc3ccccn3)cc2)cs1 [Example 26] | – | – | EC50 [1, 5]: 14 µM |
| Nc1nc(-c2ccc(NC(=O)CCN(CCN3CCCC3)Cc3ccccc3)cc2)cs1 [Example 27] | – | – | EC50 [1, 5]: 15 µM |
| CN(CCc1ccncc1)C(=O)Nc1ccc(-c2csc(NC(=O)OC(C)(C)C)n2)cc1 [Example 29] | 3.9 µM | – | – |
| Nc1nc(-c2ccc(NC(=O)CCN(Cc3ccccc3)Cc3cccnc3)cc2)cs1 [Example 29] | – | – | EC50 [1, 5]: 14 µM |

| Structure (SMILES) | EC50 [1, 6] | EC50 [1, 7] | other results |
| --- | --- | --- | --- |
| CCCCN(C)C(=O)Nc1ccc(-c2csc(NC(=O)OC(C)(C)C)n2)cc1 [Example 30] | 2.2 µM | – | – |
| Nc1nc(-c2ccc(NC(=O)CCN(Cc3ccccc3)Cc3ccccc3O)cc2)cs1 [Example 30] | – | – | EC50 [1, 5]: 13 µM |
| CCCCN(CC)C(=O)Nc1ccc(-c2csc(NC(=O)OC(C)(C)C)n2)cc1 [Example 31] | 2 µM | – | – |
| CCCCN(CCO)C(=O)Nc1ccc(-c2csc(NC(=O)OC(C)(C)C)n2)cc1 [Example 32] | 2 µM | – | – |
| CCCCN(CC#N)C(=O)Nc1ccc(-c2csc(NC(=O)OC(C)(C)C)n2)cc1 [Example 33] | 2.4 µM | – | – |
| CCCCNc1nc(-c2ccc(NC(=O)N(CCCC)CCCC)cc2)cs1 [Example 34] | 10 µM | – | – |
| CCCCN(CCCC)C(=O)Nc1ccc(-c2csc(Nc3ccccn3)n2)cc1 [Example 35] | 2.2 µM | – | – |
| CCCCN(CCCC)C(=O)Nc1ccc(-c2csc(Nc3cccnc3)n2)cc1 [Example 36] | 3 µM | – | – |
| Nc1nc(-c2ccc(NC(=O)CN(Cc3ccccc3)C(=O)c3ccsc3)cc2)cs1 [Example 115] | – | 49 µM | – |
| Nc1nc(-c2ccc(NC(=O)CN(Cc3ccccc3)C(=O)Cc3cccs3)cc2)cs1 [Example 116] | – | 19 µM | – |
| Nc1nc(-c2ccc(NC(=O)CN(Cc3ccccc3)C(=O)Cc3ccsc3)cc2)cs1 [Example 117] | – | 35 µM | – |
| Nc1nc(-c2ccc(NC(=O)CN(Cc3ccc(F)cc3)C(=O)Cc3ccccn3)cc2)cs1 [Example 124] | – | 28 µM | – |
| Nc1nc(-c2ccc(NC(=O)CN(Cc3cccc(F)c3)C(=O)Cc3ccccn3)cc2)cs1 [Example 126] | – | 35 µM | – |
| Cc1ccccc1CN(CC(=O)Nc1ccc(-c2csc(N)n2)cc1)C(=O)c1cccs1 [Example 128] | – | 28 µM | – |
| Cc1ccccc1CN(CC(=O)Nc1ccc(-c2csc(N)n2)cc1)C(=O)COc1c(C)cccc1C [Example 129] | – | 12 µM | – |
| Cc1cc(C)nc(SCC(=O)N(CC(=O)Nc2ccc(-c3csc(N)n3)cc2)Cc2ccccc2C)n1 [Example 130] | – | 8.8 µM | – |
| Cc1ccccc1CN(CC(=O)Nc1ccc(-c2csc(N)n2)cc1)C(=O)Cc1cccs1 [Example 131] | – | 16 µM | – |
| Cc1ccccc1CN(CC(=O)Nc1ccc(-c2csc(N)n2)cc1)C(=O)Cc1ccsc1 [Example 132] | – | 14 µM | – |
| Cc1ccccc1CN(CC(=O)Nc1ccc(-c2csc(N)n2)cc1)C(=O)c1ccsc1 [Example 133] | – | 17 µM | – |
